The source of these data is article PMC11242853, “The Antimicrobial Activity of Human Defensins at Physiological Non-Permeabilizing Concentrations Is Caused by the Inhibition of the Plasma Membrane H^+-ATPases” (International Journal of Molecular Sciences, 2024).

Where no end group is shown, it is not given here.

The subject of assay [1] is Candida albicans ATCC 10231. Kind of assay: Antimicrobial spread-plate (CFU) killing assay, C. albicans. The settings on record: for effect of high extracellular K+ on candidacidal activity: 50 mM KCl, defensins at NPIC, hLf 5 μM, BM2 0.25 μM, nystatin 50 μM; for non-permeabilizing inhibitory concentration (NPIC), C. albicans: antimicrobial concentration (≤10% viable cells) that permeabilized ≤10% of cells, 10^6 cells/mL, Tris buffer pH 7.4, 90 min at 37 °C, from Figure 1 data, duplicates of three experiments; for effect of piericidin A on candidacidal activity: cells preincubated 15 min at 37 °C with 32 µM piericidin A, then peptides (NPIC) 90 min; for effect of oligomycin A on candidacidal activity: preincubated 15 min at 37 °C with 16 μg/mL oligomycin A, peptides at NPIC; for candidacidal activity (comparison among defensins): 0–2 μM, 90 min at 37 °C, Tris buffer. The assay is classed as cell-based. As for the experimental part:
(§1) To determine whether the above microbicidal concentrations exert a permeabilizing effect on fungal and bacterial membranes, the influx of the fluorescent nucleic acid-binding dye propidium iodide (PI) in cells incubated with the peptides was assessed. In cells, dye uptake reflects membrane permeabilization, as PI itself cannot permeate through an intact phospholipid bilayer. […] To select an antimicrobial but non-permeabilizing concentration of each peptide for further assays, we defined as a non-permeabilizing inhibitory concentration (NPIC) the antimicrobial inhibitory concentration (≤10% viable cells) that permeabilized ≤ 10% of cells incubated (90 min at 37 °C) in buffer solution.
(§2) Microbial susceptibility to the peptides was determined in a spread-plate assay as described previously. Briefly, cell suspensions (10^6 cells/mL) in Tris buffer (10 mM Tris-HCl, pH 7.4) were incubated for 90 min at 37 °C with 2-fold serial peptide dilutions. Peptide concentrations ranged from 0 to 2 μM. After incubation, the number of viable cells was determined by plating aliquots (100 μL) in duplicate on plates (SDA for C. albicans, TSA for P. aeruginosa, and M17G agarified medium for L. lactis) that had been dried for 30 min at room temperature in a laminar flow hood. Plates were incubated for 24–48 h at 30 °C (C. albicans and L. lactis) or 24 h at 37 °C (P. aeruginosa). Dilutions yielding 50–200 colonies were counted. Cell viability values, expressed as colony-forming units (CFUs), were calculated relative to the incubation without added peptides and represent the means ± standard deviation (SD) from duplicates of three independent experiments. For inhibition assays, unless otherwise noted, cell suspensions were preincubated (15 min at 37 °C) with the appropriate inhibitor prior to the addition of peptides, but the inhibitor was present throughout the incubation period with the peptide (90 min at 37 °C). Other specific experimental conditions are described as appropriate. In some experiments, the concentrations of human lactoferrin against C. albicans (5 μM), P. aeruginosa (1 μM), and L. lactis (0.065 μM) were used in the control assays. In various viability assays, BM2 peptide (0.25 μM), CCCP (50 μM), colistin (4 μg/mL), nystatin (50 μM), oligomycin A (16 μg/mL), piericidin A (32 μM), and TEA (10 mM) were used.

The subject of assay [2] is Pseudomonas aeruginosa PAO1. Kind of assay: Antimicrobial spread-plate (CFU) killing assay, P. aeruginosa. The note with it: for non-permeabilizing inhibitory concentration (NPIC), P. aeruginosa: antimicrobial concentration (≤10% viable cells) that permeabilized ≤10% of cells, 10^6 cells/mL, Tris buffer pH 7.4, 90 min at 37 °C, from Figure 1 data, duplicates of three experiments. The assay is classed as cell-based. As for the experimental part:
as §1, §2

The subject of assay [3] is C. albicans cells. Kind of assay: Oxygen consumption measurement (polarographic), C. albicans. Format: cell-based, Candida albicans. The settings on record: after 30 min; defensins 2 x NPIC, human lactoferrin 20 μM, piericidin A 32 µM; preincubated 15 min at 37 °C; untreated cells 94% ± 2%; means ± SD, three experiments. As for the experimental part:
(§3) Oxygen consumption by C. albicans and P. aeruginosa cells was determined by polarographically using a biological oxygen monitor (dual digital-model 20; Rank Brothers Ltd., Cambridge, UK) at 25 °C. The apparatus consisted of a twin water-jacketed closed sample chamber, which enabled a control experiment to be conducted concurrently. The cells were grown to mid-log phase in SDB (C. albicans) or TSB (P. aeruginosa), washed twice in Tris buffer, and resuspended in the same buffer. Cell suspensions (approximately 10^7 cells/mL) were preincubated with defensins (2 x NPIC), human lactoferrin (20 μM), or piericidin A (32 μM) for 15 min at 37 °C. Oxygen consumption was recorded at 5-min intervals for a period of 30 min. Three independent experiments were performed, and the data are means ± SD.

Another assay has as its system P. aeruginosa cells. As to the kind of experiment: Oxygen consumption measurement (polarographic), P. aeruginosa. The assay is classed as cell-based, Pseudomonas aeruginosa. The note with it: after 30 min; defensins 2 x NPIC, human lactoferrin 20 μM, piericidin A 32 µM; preincubated 15 min at 37 °C; untreated cells 83% ± 2%; means ± SD, three experiments. As for the experimental part: as §3

The subject of assay [4] is C. albicans cells. As to the kind of experiment: Total cellular ATP (BacTiter-Glo). The settings on record: for ATP increment: Table 2, no reference given; for increase in ATP levels compared to the untreated control: defensins at NPIC, human lactoferrin 5 μM, BM2 peptide 0.25 μM, 10^6 cells/mL, BacTiter-Glo luminescence. Format: cell-based, Candida albicans. As for the experimental part:
Total ATP was measured using the BacTiter-Glo^TM Microbial Cell Viability Assay (Promega Co., Madison, WI, USA) according to the manufacturer’s instructions. […] Aliquots (100 µL) were incubated (90 min at 37 °C) with human defensins (NPICs). Human lactoferrin (5 μM) or BM2 peptide (0.25 μM) was used as positive controls. One hundred microliters of the incubation mixture was transferred to an opaque 96-well plate, mixed with an equal volume of BacTiter-Glo^TM reagent, and incubated for 15 min in the dark. The reagent uses a thermostable luciferase to generate luminescence in an ATP-dependent manner. The emitted luminescence was detected using a Varioskan Flash multimode reader (Thermo Scientific, Waltham, MA, USA) with a 10 s shaking and 1 s integration time. A calibration curve was generated for each experiment with ATP standards ranging from 1 to 1000 nM. All assays were performed at least three times in duplicate.

For the next assay, the system named is Pma1p H^+-ATPase. The settings on record: Table 2; no reference given. As for the experimental part:
A whole-cell proton transport assay was used to evaluate the possible inhibition of the fungal Pma1p H^+-ATPase by defensins.
To measure proton pumping from Pma1p H^+-ATPase activity, a glucose-induced acid extrusion assay was performed as previously described with modifications. Briefly, cultures of C. albicans cells were grown to mid-log phase in SDB medium and washed twice in 100 mM Tris-HCl (pH 8.0). The cells were then resuspended in 50 mM KCl and maintained for 18 h at 4 °C to reduce metabolic activity to a minimum (starvation conditions). To determine external acidification, starved cells (approximately 10^7 cells/mL) were incubated for 15 min at 37 °C in the presence or absence of the defensins (2 x NPIC). Cells incubated with 20 µM human lactoferrin or 0.5 µM BM2 peptide were used as positive controls. The initial pH of the cell suspension was adjusted to approximately pH 6.8 with HCl, and glucose (final concentration of 2.5 mM) was immediately added to the cell suspension. The pH of the medium was recorded at 5-min intervals for 20 min using a SevenMulti S50-K pH meter (Mettler-Toledo, Greifensee, Switzerland) with a calibrated electrode (InLab 413, Mettler-Toledo) under constant stirring. Each experiment was repeated three times in an independent manner.

As for “HNP-4: human α-defensin, UniProtKB P12838, 33 amino acids; purchased from PeptaNova (VCSCRLVFCRRTELRVGNCLIGGVSFTYCCTRV; ends and bridges not checked; cysteine pairing not given here; UniProt P12838 64-96, looked up)”, in assay [1], the “effect of high extracellular K+ on candidacidal activity” value (from here on “effect of high extracellular K+”) is “significantly protected”; the “non-permeabilizing inhibitory concentration (NPIC), C. albicans” value turned out to be 0.25 µM; the “effect of piericidin A on candidacidal activity” value was “significantly less susceptible”; the “effect of oligomycin A on candidacidal activity” value is recorded as “significantly (p < 0.001) less susceptible”. The “Cell death inhibitors, extracellular: Tok1p inhibitors (TEA)” value (from here on “Cell death inhibitors, extracellular”) in assay [1] (Table 2, no reference given) was “Yes [69] ND Yes ND ND ND ND ND ND”. Further, the “non-permeabilizing inhibitory concentration (NPIC), P. aeruginosa” value in assay [2] was 0.25 µM. Moreover, the “oxygen consumption percentage of C. albicans” value (“oxygen consumption percentage” for short) in the assay with C. albicans cells [3] is given as 81% ± 3%. Also, the “O2 consumption of P. aeruginosa” value with P. aeruginosa cells is 75% ± 2%. In addition, in the assay with C. albicans cells [4], the ATP increment result is recorded as “Yes” and the “increase in ATP levels compared to the untreated control” value (“increase in ATP levels” below) is reported as ~ 8 fold. Besides, the “Inhibition of H^+-extrusion (yeast)” value in the assay with Pma1p H^+-ATPase is given as “Yes”.

For “hBD-3: human β-defensin, UniProtKB Q5U7J2, 45 amino acids; purchased from PeptaNova (GIINTLQKYYCRVRGGRCAVLSCLPKEEQIGKCSTRGRKCCRRKK; Beta-defensin 103; UniProt P81534 23-67, looked up)”, in assay [1], the “candidacidal activity (comparison among defensins)” value is “highest candidacidal activity”; the “effect of high extracellular K+” value is “significantly protected”; the “non-permeabilizing inhibitory concentration (NPIC), C. albicans” value turned out to be 0.125 µM; the “effect of piericidin A on candidacidal activity” value is reported as “significantly less susceptible”. Moreover, the “effect of oligomycin A on candidacidal activity” value in assay [1] is reported as “significantly (p < 0.001) less susceptible”. Besides, in assay [1] (Table 2, no reference given), the “Cell death inhibitors, extracellular” value is “Yes”. Besides, the “pseudomonacidal activity (comparison among defensins)” value in assay [2] (0–2 μM, 90 min at 37 °C, Tris buffer) was “most potent pseudomonacidal activity”. Further, the “non-permeabilizing inhibitory concentration (NPIC), P. aeruginosa” value in assay [2] is 0.25 µM. Moreover, the “oxygen consumption percentage” value in the assay with C. albicans cells [3] was 79% ± 4%. For the same substance, in the assay on P. aeruginosa cells, the “O2 consumption of P. aeruginosa” value is 82% ± 4%. Moreover, in the assay on C. albicans cells [4], the ATP increment result is on record as “Yes” and the “increase in ATP levels” value is recorded as ~ 6 fold. Further, the “Inhibition of H^+-extrusion (yeast)” value with Pma1p H^+-ATPase is “Yes”.

In the case of “HNP-1: human α-defensin, UniProtKB P59665, 30 amino acids, three disulfide bonds; purchased from PeptaNova”, in assay [1], the “candidacidal activity (comparison among defensins)” value was “highest candidacidal activity”; the “effect of high extracellular K+” value is listed as “significantly protected”; the “non-permeabilizing inhibitory concentration (NPIC), C. albicans” value amounted to 0.25 µM; the “effect of piericidin A on candidacidal activity” value was “significantly less susceptible”. For the same substance, the “effect of oligomycin A on candidacidal activity” value in assay [1] was “significantly (p < 0.001) less susceptible”. For the same substance, in assay [1] (Table 2, no reference given), the “Cell death inhibitors, extracellular” value was “Yes” and the “Cell death inhibitors, intracellular: Oligomycin A” value is “Yes”. The “Cell death inhibitors, intracellular: Piericidin A” value in assay [1] (Table 2, no reference given, tested on C. albicans and P. aeruginosa in this study) is given as “Yes”. In addition, the “non-permeabilizing inhibitory concentration (NPIC), P. aeruginosa” value in assay [2] is 0.5 µM. For the same substance, the “effect of piericidin A on bactericidal activity, P. aeruginosa” value in assay [2] (cells pretreated with 32 µM piericidin A, defensins at NPIC) is “significantly (p < 0.001) protected”. Moreover, the “effect of CCCP on bactericidal activity, P. aeruginosa” value in assay [2] (preincubated 15 min at 37 °C with 50 µM CCCP at pH 7.4, peptides at NPIC) was “significant reduction”. The “oxygen consumption percentage” value in the assay with C. albicans cells [3] is listed as 87% ± 4%. Also, the “O2 consumption of P. aeruginosa” value in the assay on P. aeruginosa cells is reported as 72% ± 2%. Besides, the “increase in ATP levels” value in the assay with C. albicans cells [4] was ~ 7 fold. For the same substance, the “Inhibition of H^+-extrusion (yeast)” value with Pma1p H^+-ATPase is “Yes”.
